Results: patent US6517853B1, “Process for preparing a crystal suspension” (Syngenta Limited, priority 1999, dated 2003)

Legend:
[1] = ΔH/RT value (heat of fusion by differential scanning calorimetry divided by R and melting point in K); format: physicochemical
Experimental: The value ΔH/RT is a well understood expression which means the enthalpy (heat) of fusion of a compound (ΔH in kJmol^−1) at the normal melting point of the compound divided by the molar gas constant (R, where R is 8.31451 Jmol^−1K^−1) and the melting point of the compound measured on the absolute or Kelvin scale (in °K). Thus, for example, the ΔH/RT value of octadecane, which has a melting point of 28.2° C. and a heat of fusion of 61.39 kJmol^−1 (see the CRC Handbook of Chemistry and Physics, [1996-1997], 77th Edition. 6-138) is calculated as follows: […]
The heat of fusion of a compound (ΔH) may be measured by differential scanning calorimetry. A suitable method is described by McNaughton, J. L. and Mortimer, C. T. in IRS: Physical Chemistry Series 2, Butterworth, London 1975, Vol 10; subsequently reprinted by Perkin-Elmer Corpn. Norwalk, Conn., USA.

[2] = CRC Handbook of Chemistry and Physics, 77th Edition; cited from earlier work
[3] = Optical microscope image analysis of droplet / crystal size in aqueous emulsion or dispersion; format: physicochemical; details: for crystal size immediately after sonication: all four samples (6 and 2 lhr^−1); for droplet size of hot emulsion: before cooling
Excerpt: (§1) A small sample of the cooled sonicated emulsion was transferred using a capillary tube to a microscope slide and was protected with a glass cover slip. The slide was viewed using transmitted light or cross-polarised light (Zeiss microscope) and an image recorded on a calibrated micrograph. The micrograph provides information as to the size (μm), shape and degree of crystallinity of the droplets or crystals.

[4] = Storage of crystalline dispersion, Ostwald ripening (crystal growth) under optical microscope; format: physicochemical; details: 1% w/w sonicated dispersion, after one week
Excerpt: as §1
The number of spheres/particles in the final dispersion was similar to the number of droplets in the original hot emulsion which indicated nucleation had occurred preferentially in the droplets.

[5] = enthalpy of fusion at normal melting point / (R × melting point in K)
[6] = 1% w/w aqueous dispersion, cooled to 20° C., continuous sonication 500 w
[7] = 1% w/w in aqueous Mowiol 18-88, emulsified five minutes by high shear mixer
[8] = 1% w/w aqueous dispersion, sonicated, higher flow (6 lhr^−1)

CCCCCCCCCCCCCCCCCC [octadecane]
ΔH/RT ([1]; calculated from CRC Handbook melting point 28.2° C. and heat of fusion): 24.5
heat of fusion [2]: 61.39 kJmol^−1

α-methyl-4-(2-methylpropyl)benzene acetic acid [ibuprofen]
ΔH/RT [1, 5]: 9.33
crystal size immediately after sonication [3, 6]: < 10 μm
droplet size of hot emulsion [3, 7]: ≤ 10 μm
crystal size (twinned crystals) without sonication ([3]; 2% aqueous dispersion, cooled without sonication, equilibrated for 18 hrs): 100-200 μm
crystal size (crystalline spheres) immediately after sonication ([3]; 20% w/w aqueous dispersion, cooled to 20° C., continuous sonication 500 w, all four samples): < 10 μm
droplet size of hot emulsion ([3]; 20% w/w in aqueous Mowiol 18-88, emulsified five minutes by high shear mixer): ≤ 10 μm

C=C1C2CC[C@@H](C2)C1(C)C [camphene, (1S)-2,2-dimethyl-3-methylenebicyclo[2.2.1]heptane]
ΔH/RT [1, 5]: 1.15
size of plates after sonication [3, 8]: 30 μm
size of small needles after sonication [3, 8]: 2 μm

CCCCNC(=O)OCC#CI [IPBC, 3-iodo-2-propynyl butyl carbamate]
ΔH/RT [1, 5]: 9.25
crystal size immediately after sonication [3, 6]: < 10 μm
droplet size of hot emulsion [3, 7]: ≤ 10 μm
Ostwald ripening (crystal growth) of sonicated dispersion [4]: no sign of “Ostwäld” ripening
